Experimental data from publication PMC7398468 (Gut, 2020).

Biological target: SUMO-activating enzyme (SAE), subunit 2 (UBA2/SAE2) (Homo sapiens, UniProt Q9UBT2)
Assay: ATP-inorganic pyrophosphate exchange assay with SUMO2
Format: biochemical

Chain of SUMO-activating enzyme (SAE), subunit 2 (UBA2/SAE2) (Q9UBT2 whole entry): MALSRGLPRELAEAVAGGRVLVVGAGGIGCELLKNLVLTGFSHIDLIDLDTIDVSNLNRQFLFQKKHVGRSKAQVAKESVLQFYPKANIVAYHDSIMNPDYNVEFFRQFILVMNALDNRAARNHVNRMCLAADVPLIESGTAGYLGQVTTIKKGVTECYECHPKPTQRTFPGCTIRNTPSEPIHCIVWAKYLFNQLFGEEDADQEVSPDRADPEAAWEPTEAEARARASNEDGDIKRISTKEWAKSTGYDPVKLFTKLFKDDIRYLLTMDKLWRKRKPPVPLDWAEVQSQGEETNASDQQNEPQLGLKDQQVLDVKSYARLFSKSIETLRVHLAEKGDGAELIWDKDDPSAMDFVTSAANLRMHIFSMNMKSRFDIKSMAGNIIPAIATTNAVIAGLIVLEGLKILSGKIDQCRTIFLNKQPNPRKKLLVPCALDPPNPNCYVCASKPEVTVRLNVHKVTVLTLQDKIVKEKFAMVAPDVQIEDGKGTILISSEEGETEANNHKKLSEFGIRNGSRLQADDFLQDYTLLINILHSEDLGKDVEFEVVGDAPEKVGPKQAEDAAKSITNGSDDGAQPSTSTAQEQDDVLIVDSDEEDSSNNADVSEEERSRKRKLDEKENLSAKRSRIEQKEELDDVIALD
Chain of SUMO-activating enzyme (SAE), subunit 2 (UBA2/SAE2) (Q9UBE0 whole entry, further chain): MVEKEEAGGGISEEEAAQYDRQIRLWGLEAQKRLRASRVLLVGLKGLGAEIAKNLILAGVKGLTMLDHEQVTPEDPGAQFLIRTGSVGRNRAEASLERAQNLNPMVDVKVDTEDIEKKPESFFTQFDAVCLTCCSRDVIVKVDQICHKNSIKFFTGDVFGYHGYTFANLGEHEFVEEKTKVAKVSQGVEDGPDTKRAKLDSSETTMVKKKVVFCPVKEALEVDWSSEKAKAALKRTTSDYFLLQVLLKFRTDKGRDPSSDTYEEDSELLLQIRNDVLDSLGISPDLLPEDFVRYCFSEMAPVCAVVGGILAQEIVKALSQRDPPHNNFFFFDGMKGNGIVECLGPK

ML-93
IC50: 37 nM
